Results as given in paper PMC8445934, “Transformation of tenofovir into stable ProTide nanocrystals with long-acting pharmacokinetic profiles” (Nature Communications, 2021).
In brackets after ≈: the same amount, converted by molar mass. Several values for one entry are separate records, joined by “and”; a condition that tells them apart may be missing. Identical values can stand only once. Like-named read-outs stand apart in the source and are kept apart here.

Tests used:
[1] = Aqueous and 1-octanol solubility (excess drug, shaking 48 h, UPLC-UV); format: physicochemical; details: for solubility at 48 h: water, thermodynamic from solid
Description: Samples were centrifuged at 20,000 × g for 10 min to separate the solubilized drug from insoluble pellet. Aqueous supernatants were frozen, lyophilized, and then resuspended in MeOH. 1-octanol supernatants were prepared for analysis by dilution in MeOH and samples analyzed for drug content by UPLC-UV (Waters Acquity H Class).

[2] = Prodrug chemical stability of dissociated nanoformulations in pH 2.0-10.3 buffers; format: physicochemical; details: buffers pH 2.0-10.3, 24 h
Description: The mixtures were centrifuged at 16,000 × g for 10 min. The supernatants were aspirated and stored at −80 °C until ultraperformance liquid chromatography tandem mass spectrometry (UPLC-MS/MS) analysis.

[3] = test system: human monocyte-derived macrophages (MDM); experiment: MTT cell viability / mitochondrial activity assay in MDM; details: for Cell viability by MTT, normalized to untreated control cells: replicates
Description: Human monocytes were obtained, cultured, and differentiated into MDM as previously described[11],[12],[34],[62]. The cell viability after treatment with nanoparticles was evaluated using the MTT assay. […] The cells were then washed with PBS after which 100 μL of MTT solution was added to each well (5 mg/mL) for 45 min at 37 °C. The MTT solution was then replaced with 200 μL/well of DMSO. A Molecular Devices SpectraMax M3 plate reader with SoftMax Pro 6.2 software (Sunnyvale, CA) was used to record absorbance at a wavelength of 490 nm.

[4] = test system: HIV-1ADA; experiment: Antiretroviral EC50/IC50 in MDM by HIV-1 RT activity after HIV-1ADA challenge; format: cell-based; details: for RT activity (cpm/ mL): replicate wells
Description: To determine long-term antiretroviral efficacy following a single treatment, MDMs were plated in flat-bottom 12-well plates at a density of 1.2 × 10^6 cells/well. […] After treatment, the cells were washed twice with PBS and cultured in a fresh culture medium without drug with half-media replacement every other day. On days 1, 5, 10, 15, 20, 25, and 30 following treatment, the cells were infected with HIV-1ADA (a macrophage-tropic viral strain) at a multiplicity of infection of 0.1 infectious particles/cell for 8 h. MDM were cultured, and media samples collected on day 10 for the measurement of HIV reverse transcriptase (RT) activity as previously described[64],[65]. Cells were fixed in 2% PFA at each time point, and expression of the HIV-1p24 antigen was determined by immunocytochemistry. […] After 4 h of viral challenge, the cells were washed with PBS and given fresh media that contained the same concentrations of drug (0.00005–5,000 nM). Cell supernatants were collected 10 days later and assayed for HIV-1 RT activity as described above. Replicate studies were performed in CEM-ss CD4+ T-cell cultures. Specifically, cells were plated in 96-well plates, centrifuged at 650 × g for 5 min, and resuspended in (0.1–1,000 nM) drug-containing media for 1 h. The subsequent challenge with HIV-1NL4–3-eGFP, cell culture, sample collection, and determination of HIV-1 RT activity were performed as previously reported[13],[15].

[5] = test system: HIV-1NL4–3-eGFP; experiment: microbe, parasite or virus in culture; format: cell-based; details: for % GFP Positive: replicates
Excerpt: (§1) Supplementary Fi gur e 9. ProTide Biological Characterizations. […]
(§2) (1 picture or pasted object on this page, not shown here)

[6] = test system: CEM-ss T-cells; details: replicates
Description: as §1
one- way analysis of variance (ANOVA) followed by Tukey’s post hoc test was used to compare the prodrug and TFV-DP levels among three treatment groups (*P ≤ 0.05, **P < 0.01, […]
(0.0001– 1000 nM) and determined by HIV-1 reverse transcriptase (RT) activity after viral challenge with HIV -1ADA at an MOI of 0.1. Data was normalized and expressed as percentage of HIV-1 control ± SEM; N = 4.
as §2

CC(C)OC(=O)[C@H](C)N[P@](=O)(CO[C@H](C)Cn1cnc2c(N)ncnc21)Oc1ccccc1 [TAF, tenofovir alafenamide]
water solubility, individual replicates ([1]; Figure 1C source data): 4.882 | solubility at 48 h ([1]; Figure 1C source data, read-out: water solubility, individual replicates): 6160 µg/mL (≈ 12.9 mM) | solubility at 48 h ([1]; room temperature, 48 h, read-out: aqueous solubilities): 5520 µg/mL (≈ 11.6 mM) | hydrolytic stability across pH [2]: hydrolytically unstable at basic pH | toxicity to cells ([3]; 100 μM): highly toxic to cells | concentration above which a decrease in cell viability was observed ([3]; 8 h): above 12.5 μM | Cell viability by MTT, normalized to untreated control cells ([3]; 8 h, 1.5625 uM): 0.7334 and 0.7343 and 0.7491 | Cell viability by MTT, normalized to untreated control cells ([3]; 8 h, 3.125 uM): 0.6802 and 0.6819 and 0.7483 | Cell viability by MTT, normalized to untreated control cells ([3]; 8 h, 6.25 uM): 0.6627 and 0.6548 and 0.6836 and 0.7177 | Cell viability by MTT, normalized to untreated control cells ([3]; 8 h, 25 uM): 0.6304 and 0.5666 and 0.5754 and 0.5928 | Cell viability by MTT, normalized to untreated control cells ([3]; 8 h, 50 uM): 0.4531 and 0.3981 and 0.3597 and 0.4348 | Cell viability by MTT, normalized to untreated control cells ([3]; 8 h, 100 uM): 0.3842 and 0.3676 and 0.4051 and 0.4296 | Cell viability by MTT, normalized to untreated control cells ([3]; 8 h, 200 uM): 0.3562 and 0.31 and 0.303 and 0.3222 | EC50 ([4]; Human immunodeficiency virus 1, 240 h): 0.22 nM | RT activity (cpm/ mL) ([4]; drug concentration 5e-6 nM): 29.681 cpm/ mL and 30.024 cpm/ mL and 28.68 cpm/ mL | RT activity (cpm/ mL) ([4]; drug concentration 5e-5 nM): 35.114 cpm/ mL and 41.925 cpm/ mL and 38.687 cpm/ mL | RT activity (cpm/ mL) ([4]; drug concentration 0.0005 nM): 33.176 cpm/ mL and 39.763 cpm/ mL and 30.439 cpm/ mL | RT activity (cpm/ mL) ([4]; drug concentration 0.005 nM): 15.954 cpm/ mL and 19.78 cpm/ mL and 30.439 cpm/ mL | RT activity (cpm/ mL) ([4]; drug concentration 0.05 nM): 13.503 cpm/ mL and 38.469 cpm/ mL | RT activity (cpm/ mL) ([4]; drug concentration 0.5 nM): 16.77 cpm/ mL and 16.849 cpm/ mL and 12.873 cpm/ mL | RT activity (cpm/ mL) ([4]; drug concentration 5 nM): 0.361 cpm/ mL and 0.448 cpm/ mL and 0.415 cpm/ mL | RT activity (cpm/ mL) ([4]; drug concentration 50 nM): 0.452 cpm/ mL and 0.242 cpm/ mL | RT activity (cpm/ mL) ([4]; drug concentration 500 nM): 0.23 cpm/ mL and 0.324 cpm/ mL and 0.407 cpm/ mL | RT activity (cpm/ mL) ([4]; drug concentration 5000 nM): 0.233 cpm/ mL and 0.252 cpm/ mL and 0.245 cpm/ mL | EC50 ([5]; Human immunodeficiency virus 1, CEM-SS): 0.33 nM | % GFP Positive ([5]; Log Drug Concentration (uM) 0): 0.094% and 0.243% and 0.132% | % GFP Positive ([5]; Log Drug Concentration (uM) -1): 0.087% and 0.114% and 0.038% | % GFP Positive ([5]; Log Drug Concentration (uM) -2): 0.071% and 0.098% (2×) | % GFP Positive ([5]; Log Drug Concentration (uM) -3): 0.109% and 0.099% and 0.2% | % GFP Positive ([5]; Log Drug Concentration (uM) -4): 39.441% and 35.802% and 35.047% | % GFP Positive ([5]; Log Drug Concentration (uM) -5): 32.55% and 34.185% and 34.763% | % GFP Positive ([5]; Log Drug Concentration (uM) -6): 38.186% and 33.243% and 31.663% | % GFP Positive ([5]; Log Drug Concentration (uM) -9): 36.164% and 40.34% and 38.638% | % GFP Positive ([5]; Log Drug Concentration (uM) -12): 43.7% and 40.475% and 37.429% | Prodrug measurements, CEM-ss cells ([6]; 2 hours): 0.09778 and 0.1063 and 0.08772 | Prodrug measurements, CEM-ss cells ([6]; 4 hours): 0.113 and 0.1292 and 0.1331 | Prodrug measurements, CEM-ss cells ([6]; 8 hours): 0.2769 and 0.2544 and 0.2424
